Here are results for twelve compounds from PubChem BioAssay (NCI).

Structures are written as SMILES.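 Five concentrations, 48 hours, 96-well plates. GI50 is the concentration that inhibits growth by half. TGI: concentration producing complete growth inhibition.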

Test in all cases: inhibition of tumour cell growth, NCI panel, 48 h
In experiment [1] the test system is SK-MEL-2 melanoma.
In experiment [2] the test system is SN12C renal.
Experiment [3] deals with NCI/ADR-RES ovarian.
The test system of experiment [4] is MDA-MB-435.
In experiment [5] the test system is RXF 393 renal.
The subject of experiment [6] is HL-60(TB) leukemia.
The test system of experiment [7] is SF-295 CNS.
Experiment [8] relates to UACC-257 melanoma.
In experiment [9] the test system is OVCAR-3 ovarian.
Experiment [10] deals with UO-31 renal.

In the case of `CC1=C(C(=O)Nc2ccc3[nH]ncc3c2)C(c2ccc3ccccc3c2)CC(=O)N1` (stereo not given), the GI50 in experiment [1] is greater than 25 µM; in experiment [2] it was greater than 25 µM; in [3], greater than 25 µM; in experiment [4] it was greater than 25 µM; in experiment [5], 4.11 µM; in experiment [6], greater than 25 µM. Besides, the GI50 in experiment [7] was 16.5 µM; in experiment [8], greater than 25 µM; in experiment [9], greater than 25 µM; in experiment [10], 2.4 µM. Also, the TGI was greater than 25 µM in [1]; greater than 25 µM in experiment [2]; greater than 25 µM in experiment [3]; greater than 25 µM in experiment [4]; greater than 23.8 µM in experiment [5]; greater than 25 µM in [6]. Besides, the TGI in experiment [7], in [8], in experiment [9] and in [10] was greater than 25 µM in each case.

Turning to `O=C1c2c(c3c4ccccc4n(CCCCCCBr)c3c3[nH]c4ccccc4c23)C(=O)N1O`, the GI50 in experiment [1] is 2.09 µM; in experiment [2] it was 3.68 µM; in experiment [3] it was 2.49 µM; in [4], 1.98 µM; in [5], 3.32 µM; in experiment [6], 2.08 µM. Further, the GI50 in experiment [7] is 2.75 µM; in experiment [8], 2.74 µM; in experiment [9], 3.06 µM; in [10], 2.11 µM. Moreover, the TGI worked out at 5.27 µM in [1]; 12.8 µM in [2]; 7.8 µM in experiment [3]; 4.97 µM in experiment [4]; 14.5 µM in [5]; 4.63 µM in experiment [6]. In addition, the TGI was 9.01 µM in experiment [7], 6.04 µM in [8], 13 µM in experiment [9] and 10.1 µM in experiment [10].

As for `COc1cnc2cc(C(=O)O)c3c([N+](=O)[O-])cccc3c2c1`, the TGI in experiment [1], in experiment [2], in [3], in [4], in experiment [5] and in [6] was greater than 100 µM in each case. Further, the TGI in [7], in experiment [8], in experiment [9] and in experiment [10] was greater than 100 µM in each case.

As to `CC1OC(O[C@H]2C[C@@H](O)[C@]3(CO)[C@H]4[C@H](O)C[C@]5(C)[C@@H](C6=CC(=O)OC6)CC[C@]5(O)[C@@H]4CC[C@]3(O)C2)C(O)C(O)C1O` (stereo not given in full), the GI50 in experiment [1] was 20.2 µM; in experiment [2] it was 20.6 µM; in experiment [3] it was 19.5 µM; in experiment [4] it was 19.5 µM; in [5] it was 27.5 µM; in [6], 21 µM. For the same compound, the GI50 was 19.3 µM in experiment [7], 19.5 µM in [8], 19.8 µM in [9] and 24.7 µM in experiment [10]. Moreover, the TGI was 44.8 µM in experiment [1]; 40.6 µM in [2]; 39.9 µM in experiment [3]; 38.6 µM in [4]; 75.6 µM in [5]; 41.6 µM in experiment [6]. Further, the TGI in experiment [7] was 35.3 µM; in experiment [8] it was 39.2 µM; in [9], 40.7 µM; in experiment [10], 57.1 µM.

`Cc1nc2cccc([N+](=O)[O-])c2c(NCCCN(C)C)c1C`: the TGI in experiment [1] is greater than 85.6 µM; in experiment [2], 16.1 µM; in [3] it was greater than 100 µM; in [4], greater than 100 µM; in [5] it was greater than 100 µM; in [6], 17.8 µM. In addition, the TGI in experiment [7] was greater than 100 µM; in experiment [8], 57.3 µM; in experiment [9] it was greater than 63.9 µM; in experiment [10] it was greater than 100 µM.

Take `CNC(=O)OCc1c(COC(=O)NC)c(-c2ccc(Cl)c(Cl)c2)n2c1SCC2`: the TGI turned out to be 26.7 µM in [1]; 34 µM in experiment [2]; 40 µM in [3]; 33.3 µM in [4]; 13.8 µM in experiment [5]; 25.4 µM in experiment [6]. The TGI in experiment [7] came to 35.7 µM; in experiment [8], 31.7 µM; in experiment [9], 25.2 µM; in experiment [10], 25.5 µM.

Regarding `Nc1ccn(C2O[C@H](CO)[C@@H](O)[C@@H]2O)c(=O)n1` (stereo not given in full), the TGI in experiment [1], in experiment [2], in experiment [3], in experiment [4], in experiment [5] and in [6] was greater than 100 µM throughout. For the same compound, the TGI in experiment [7], in [8], in experiment [9] and in experiment [10] was greater than 100 µM in each case. Further, in experiment [6], the GI50 was greater than 100 µM.

Take `CCCCC(=O)OCC1OC(n2cnc3c(=S)nc[nH]c32)C(OC(=O)CCCC)C1OC(=O)CCCC` (stereo not given): the GI50 was 1.61 µM in [1]; 2.78 µM in experiment [2]; 3.51 µM in experiment [3]; 2.21 µM in experiment [4]; greater than 71.4 µM in experiment [5]; 3.55 µM in experiment [6]. Moreover, the GI50 is 1.54 µM in [7], 11.9 µM in experiment [8], 1.01 µM in experiment [9] and 2.2 µM in [10]. Further, the TGI in experiment [1] was greater than 78.7 µM; in experiment [2] it was greater than 100 µM; in [3], greater than 100 µM; in [4], greater than 100 µM; in [5] it was greater than 100 µM; in experiment [6] it was greater than 100 µM. In addition, the TGI was greater than 26.4 µM in experiment [7], greater than 100 µM in experiment [8], greater than 36.3 µM in [9] and greater than 100 µM in experiment [10].

On to `O=C1/C(=C/c2ccc(Br)cc2)C=C(c2ccccc2)N1CCc1ccccc1`, for which the GI50 is 4.47 µM in experiment [1]; 2.15 µM in [2]; 1.08 µM in [3]; 8.38 µM in [4]; 1.26 µM in experiment [5]; 75.1 µM in experiment [6]. In addition, the GI50 in [7] was 0.332 µM; in experiment [8], 2.82 µM; in experiment [9] it was 1.78 µM; in experiment [10] it was 2.82 µM. Further, the TGI in experiment [1] was 27.2 µM; in experiment [2] it was 20.4 µM; in experiment [3], 8.01 µM; in experiment [4] it was greater than 100 µM; in experiment [5], 3.78 µM; in experiment [6], greater than 100 µM. For the same compound, the TGI in experiment [7] turned out to be 1.59 µM; in experiment [8], 18.7 µM; in experiment [9], 7.34 µM; in experiment [10], 19.8 µM.

For the compound `CN1CCN(Cc2ccc(NC(=O)c3cncc(C#Cc4cnc(N)c5ccc(C#N)cc45)c3)cc2C(F)(F)F)CC1`, the GI50 in experiment [1] was 0.0217 µM; in [2], 0.0218 µM; in experiment [3], 0.915 µM; in [4], 0.0286 µM; in experiment [5], 0.0162 µM; in [6], 0.0483 µM. Further, the GI50 in [7] was 0.214 µM; in experiment [8] it was 0.136 µM; in [9] it was 0.331 µM; in experiment [10] it was 0.0809 µM. Also, the TGI in [1] came to 0.353 µM; in experiment [2], 0.611 µM; in experiment [3], 2.03 µM; in [4], 0.675 µM; in [5] it was 0.151 µM; in [6] it was 1.05 µM. For the same compound, the TGI in experiment [7] came out at 9.95 µM; in [8], 3.09 µM; in [9], 1.45 µM; in experiment [10] it was 0.565 µM.

For `CCOc1cccc(/C=N/NC(=O)c2ccccc2Nc2ccnc(C(F)(F)F)c2)c1O`, the GI50 in experiment [1] is 3.4 µM; in experiment [2], 0.989 µM; in experiment [3], 0.506 µM; in experiment [4] it was 1.07 µM; in experiment [5], 11.5 µM; in experiment [6] it was 0.253 µM. Further, the GI50 is 0.516 µM in [7], 0.693 µM in experiment [8], 0.37 µM in experiment [9] and 0.303 µM in [10]. For the same compound, the TGI in [1] was greater than 50.4 µM; in experiment [2], greater than 94.9 µM; in experiment [3], 26.3 µM; in experiment [4] it was 77.4 µM; in [5], greater than 100 µM; in [6], 0.621 µM. Further, the values for the TGI in experiment [7], in [8] and in [9] were 30.6 µM, 47.6 µM and 51.7 µM, respectively.

On to `Cc1nn(CN2CCN(C)CC2)c(=S)n1/N=C/c1cccc2ccccc12`, for which the GI50 in experiment [1] is 20.1 µM; in [2], 24.4 µM; in experiment [3] it was 19.3 µM; in experiment [4], 18.6 µM; in [5], 18.2 µM; in experiment [6], 16.7 µM. Further, the GI50 in experiment [7] is 24.9 µM; in experiment [8], 22.2 µM; in [9], 18 µM; in [10] it was 22 µM. Also, the TGI in experiment [1] worked out at 39 µM; in [2] it was 39.2 µM; in experiment [3], 36.3 µM; in [4] it was 43 µM; in [5], 34.1 µM; in [6], 37 µM. Moreover, the TGI in [7] amounted to 59.5 µM; in [8], 44.6 µM; in [9], 36 µM; in experiment [10], 54.4 µM.
